Results as given in patent US8334313B2, “Ureido substituted benzoic acid compounds and their use for nonsense suppression and the treatment of disease” (PTC Therapeutics, Inc., priority 2002, dated 2012).

What follows are compounds tested on luciferase reporter construct containing a UGA premature termination codon (assay: cell-based luciferase reporter assay (nonsense suppression / readthrough)). Details: ranking combining potency and efficacy of protein synthesis; UGA luciferase reporter stably transfected in 293T Human Embryonic Kidney cells.
Parameters: key: *****: both extremely high potency and extremely high efficacy of protein synthesis; ****: extremely high potency of protein synthesis and very high efficacy; ****: very high potency of protein synthesis and extremely high efficacy; ***: both very high potency and very high efficacy of protein synthesis; **: very high potency of protein synthesis and significant efficacy; **: significant potency of protein synthesis and very high efficacy; *: significant potency and efficacy of protein synthesis
Method: Activity measurements in Table I were performed in a cell-based luciferase reporter assay (as described in Section 4.2) comprising a luciferase reporter construct containing a UGA premature termination codon that was stably transfected in 293T Human Embryonic Kidney cells. A small molecule (3-[3-(4-Isopropyl-phenyl)-2,5-dioxoimidazolidin-1-yl]-benzoic acid) known to allow readthrough of premature termination codons, was used as an internal standard. Activity measurements are based on the qualitative relation between the minimum concentration of compound required to produce a given protein in a cell (potency) and the maximum amount of protein produced by the cell (efficacy). Potency and efficacy activities are ranked as either extremely high, very high or significant.
The test compounds identified in the nonsense suppression assay (for convenience referred to herein as a “lead” compound) can be tested for biological activity using host cells containing or engineered to contain the target RNA element coupled to a functional readout system. For example, the lead compound can be tested in a host cell engineered to contain the RNA with the premature translation termination codon controlling the expression of a reporter gene. In this example, the lead compounds are assayed in the presence or absence of the RNA with the premature translation termination codon. Compounds that modulate premature translation termination and/or nonsense-mediated mRNA decay in vivo will result in increased expression of the full-length gene, i.e., past the premature termination codon. Alternatively, a phenotypic or physiological readout can be used to assess activity of the target RNA with the premature translation termination codon in the presence and absence of the lead compound. Both the in vitro and in vivo nonsense suppression assays used herein and as described in International Patent Publication WO 01/44516, which is incorporated by reference in its entirety, can be used to identify lead compounds can also be used to determine an EC50 for the lead compounds.
A stable cell line harboring the […] nonsense-containing luciferase gene is treated with a test compound. Cells are grown in standard medium supplemented with 1% penicillin-streptomycin (P/S) and 10% fetal bovine serum (FBS) to 70% confluency and split 1:1 the day before treatment. The next day, cells are trypsinized and 40,000 cells are added to each well of a 96-well tissue culture dish. Serial dilutions of each compound are prepared to generate a six-point dose response curve spanning 2 logs ([…]). The final concentration of the DMSO solvent remains constant at 1% in each well. Cells treated with 1% DMSO serve as the background standard, and cells treated with gentamicin serve as a positive control.
`CC(C)c1ccc(N(CC(=O)[O-])C(=O)Nc2cccc(C(=O)[O-])c2)cc1.[Na+].[Na+]` [Compound 4, 3-[3-carboxymethyl-3-(4-isopropyl-phenyl)-ureido]-benzoic acid disodium salt] was tested, and the Activity was “***”. For `O=C(O)c1cccc(N2CCN(c3ccc(OC(F)(F)F)cc3)C2=O)c1` [Compound 38, 3-[2-Oxo-3-(4-trifluoro-methoxy-phenyl)-imidazolidin-1-yl]-benzoic acid], the Activity was “*****”. With `O=C(O)c1cccc(N2CCN(c3cccs3)C2=O)c1` [Compound 73, 3-(2-Oxo-3-thiophen-2-yl-imidazolidin-1-yl)-benzoic acid] the Activity was “****”. `CCOc1ccc(N2CC(=O)N(c3cccc(C(=O)O)c3)C2=O)cc1` [Compound 27, 3-[3-(4-Ethoxy-phenyl)-2,5-dioxo-imidazolin-1-yl]-benzoic acid] was tested, and the Activity was “*”. With `COc1ccccc1CN1CC(=O)N(c2cccc(C(=O)O)c2)C1=O` [Compound 14, 3-[3-(2-methoxy-benzyl)-2,5-dioxo-imidazolidin-1-yl]-benzoic acid] the Activity was “*”. For `CC(C)c1ccc(-n2ccn(-c3cccc(C(=O)O)c3)c2=O)cc1` [Compound 35, 3-[3-(4-Isopropyl-phenyl)-2-oxo-2,3-dihydro-imidazol-1-yl]-benzoic acid], the Activity was “***”. With `COc1ccc(N2CCN(c3cccc(C(=O)O)c3)C2=O)cc1` [Compound 49, 3-[3-(4-Methoxy-phenyl)-2-oxo-imidazolidin-1-yl]-benzoic acid] the Activity was “****”. For `CC(C)c1ccc(NC(=O)Nc2cccc(C(=O)O)c2)cc1` [Compound 8, 3-[3-(4-isopropyl-phenyl)-ureido]-benzoic acid], the Activity was “***”. `O=C(O)c1cccc(N2C(=O)CN(c3cccc(Br)c3)C2=O)c1` [Compound 18, 3-[3-(3-bromo-phenyl)-2,5-dioxo-imidazolidin-1-yl]-benzoic acid] was tested, and the Activity was “*”. For `O=C(Nc1ccc(Br)cc1)Nc1cccc(C(=O)O)c1` [Compound 22, 3-[3-(4-bromo-phenyl)-ureido]-benzoic acid], the Activity was “*”. With `O=C(O)c1cccc(N2C(=O)CN(c3ccc(Br)cc3)C2=O)c1` [Compound 29, 3-[3-(4-Bromo-phenyl)-2,5-dioxo-imidazolidin-1-yl]-benzoic acid] the Activity was “*”. For `COc1ccc(N2CCN(c3ccc(C(F)(F)F)cc3)C2=O)cc1C(=O)O` [Compound 57, 2-Methoxy-5-[2-oxo-3-(4-trifluoromethyl-phenyl)-imidazolidin-1-yl]-benzoic acid], the Activity was “*”. With `O=C(O)c1cccc(N2CCN(c3cccc(F)c3)C2=O)c1` [Compound 69, 3-[3-(3-Fluoro-phenyl)-2-oxo-imidazolidin-1-yl]-benzoic acid] the Activity was “*****”. With `O=C(O)c1cccc(N2CCN(c3ccc(OCC(=O)N4CCN(c5ccccc5)CC4)cc3)C2=O)c1` [Compound 61, 3-(2-Oxo-3-{4-[2-oxo-2-(phenyl-piperazin-1-yl)-ethoxy]-phenyl}-imidazolidin-1-yl)-benzoic acid] the Activity was “*”. In the case of `CC1(C)CN(c2cccc(C(=O)O)c2)C(=O)N1c1ccc(OC(F)(F)F)cc1` [Compound 82, 3-[4,4-Dimethyl-2-oxo-3-(4-trifluoromethoxy-phenyl)-imidazolidin-1-yl]-benzoic acid], the Activity is reported as “*”. `O=C(O)c1cccc(N2CC(=O)N(c3ccc(Oc4ccccc4)cc3)C2=O)c1` [Compound 12, 3-[2,4-dioxo-3-(4-phenoxy-phenyl)-imidazolidin-1-yl]-benzoic acid] was tested, and the Activity was “*”. With `O=C(O)c1cccc(N2CCN(c3ccc(N4CCCCC4)cc3)C2=O)c1` [Compound 59, 3-[2-Oxo-3-(4-piperidin-1-yl-phenyl)-imidazolidin-1-yl]-benzoic acid] the Activity was “****”. With `O=C(O)c1cccc(N2CCN(c3ccc(F)nc3)C2=O)c1` [Compound 79, 3-[3-(6-Fluoro-pyridin-3-yl)-2-oxo-imidazolidin-1-yl]-benzoic acid] the Activity was “*”. In the case of `O=C(O)c1cccc(N2CCN(c3ccc(F)c(F)c3)C2=O)c1` [Compound 65, 3-[3-(3,4-Difluoro-phenyl)-2-oxo-imidazolidin-1-yl]-benzoic acid], the Activity is reported as “*****”. `O=C(O)c1cccc(N2CCN(c3ccc(-n4cccc4)cc3)C2=O)c1` [Compound 46, 3-[2-Oxo-3-(4-pyrrol-1-yl-phenyl)-imidazolidin-1-yl]-benzoic acid] was tested, and the Activity was “*****”. `O=C(O)c1cccc(N2CCN(c3ccc(C(F)(F)F)cn3)C2=O)c1` [Compound 72, 3-[2-Oxo-3-(5-trifluoromethyl-pyridin-2-yl)-imidazolidin-1-yl]-benzoic acid] was tested, and the Activity was “****”. With `CC(C)c1ccc(-n2ccn(-c3cccc(C(=O)O)c3)c2=S)cc1` [Compound 37, 3-[3-(4-Isopropyl-phenyl)-2-thioxo-2,3-dihydro-imidazol-1-yl]-benzoic acid] the Activity was “*”. For `O=C(NCc1ccc(Cl)cc1Cl)Nc1cccc(C(=O)O)c1` [Compound 21, 3-[3-(2,4-dichloro-benzyl)-ureido]-benzoic acid], the Activity was “*”. In the case of `O=C(O)c1cccc(N2CCN(c3ccc4c(c3)OC(F)(F)O4)C2=O)c1` [Compound 50, 3-[3-(2,2-Difluoro-benzo[1,3]dioxol-5-yl)-2-oxo-imidazolidin-1-yl]-benzoic acid], the Activity is reported as “****”. In the case of `Cc1ccc(N2CCN(c3cccc(C(=O)O)c3)C2=O)cc1F` [Compound 71, 3-[3-(3-Fluoro-4-methyl-phenyl)-2-oxo-imidazolidin-1-yl]-benzoic acid], the Activity is reported as “*****”. `COc1ccc(C(=O)O)cc1N1CCN(c2ccc(C(F)(F)F)cc2)C1=O` [Compound 52, 4-Methoxy-3-[2-oxo-3-(4-trifluoromethyl-phenyl)-imidazolidin-1-yl]-benzoic acid] was tested, and the Activity was “*”. With `O=C(O)c1cccc(N2C(=O)CN(CC3CCCCC3)C2=O)c1` [Compound 6, 3-(3-cyclohexylmethyl-2,5-dioxo-imidazolidin-1-yl)-benzoic acid] the Activity was “*”. For `CC(C)c1ccc(N2CC(=O)N(c3cccc(C(=O)O)c3)C2=O)cc1` [Compound 1, 3-[3-(4-isopropyl-phenyl)-2,5-dioxo-imidazolidin-1-yl]-benzoic acid], the Activity was “***”. `O=C(O)c1cccc(N2CCN(c3cccc(OC(F)(F)F)c3)C2=O)c1` [Compound 64, 3-[2-Oxo-3-(3-trifluoromethoxy-phenyl)-imidazolidin-1-yl]-benzoic acid] was tested, and the Activity was “****”. With `O=C(O)c1cc(N2CCN(c3ccc(C(F)(F)F)cc3)C2=O)ccc1Cl` [Compound 54, 2-Chloro-5-[2-oxo-3-(4-trifluoromethyl-phenyl)-imidazolidin-1-yl]-benzoic acid] the Activity was “****”. `CC1(C)CN(c2ccc(OC(F)(F)F)cc2)C(=O)N1c1cccc(C(=O)O)c1` [Compound 62, 3-[5,5-Dimethyl-2-oxo-3-(4-trifluoromethoxy-phenyl)-imidazolidin-1-yl]-benzoic acid] was tested, and the Activity was “*”. In the case of `O=C(O)c1cccc(N2CCN(c3ccc4c(c3)OCO4)C2=O)c1` [Compound 41, 3-(3-Benzo[1,3]dioxol-5-yl-2-oxo-imidazolidin-1-yl)-benzoic acid], the Activity is reported as “*****”. `O=C(O)c1cc(N2CCN(c3ccc(C(F)(F)F)cc3)C2=O)ccc1F` [Compound 53, 2-Fluoro-5-[2-oxo-3-(4-trifluoromethyl-phenyl)-imidazolidin-1-yl]-benzoic acid] was tested, and the Activity was “****”. In the case of `O=C(O)c1cccc(N2CCN(c3ccc4c(c3)OC(F)(F)C(F)(F)O4)C2=O)c1` [Compound 51, 3-[2-Oxo-3-(2,2,3,3-tetrafluoro-2,3-dihydro-benzo[1,4]dioxin-6-yl)-imidazolidin-1-yl]-benzoic acid], the Activity is reported as “*****”. With `CC(C)c1cccc(N2CCN(c3cccc(C(=O)O)c3)C2=O)c1` [Compound 36, 3-[3-(3-Isopropyl-phenyl)-2-oxo-imidazolidin-1-yl]-benzoic acid] the Activity was “****”. In the case of `CN1CCN(c2ccc(N3CCN(c4cccc(C(=O)O)c4)C3=O)cc2)CC1` [Compound 76, 3-{3-[4-(4-Methyl-piperazin-1-yl)-phenyl]-2-oxo-imidazolidin-1-yl}-benzoic acid], the Activity is reported as “*”. `O=C(O)c1cccc(N2CCN(c3ccc(C(F)(F)F)cc3)C2=O)c1F` [Compound 58, 2-Fluoro-3-[2-oxo-3-(4-trifluoromethyl-phenyl)-imidazolidin-1-yl]-benzoic acid] was tested, and the Activity was “**”.
